Reference: patent US20220315558A1, “POLYMORPHS OF 1-(2-((((TRANS)-3-FLUORO-1-(3-FLUOROPYRIDIN-2-YL)CYCLOBUTYL)METHYL)AMINO)PYRIMIDIN-5-YL)-1H-PYRROLE-3-CARBOXAMIDE” (Cytokinetics, Inc., priority 2019, published 2022)

Experiments:
Type in all cases: physicochemical
[1] = Gravimetric Vapour Sorption (GVS) moisture sorption isotherm; conditions: over 0-90% RH range, 25° C.
Protocol: GVS data were collected using a SMS DVS Intrinsic moisture sorption analyser, controlled by DVS Intrinsic Control software v1.0.0.30. The sample temperature was maintained at 25° C. by the instrument controls. The humidity was controlled by mixing streams of dry and wet nitrogen, with a total flow rate of 200 ml/min The relative humidity was measured by a calibrated Rotronic probe (dynamic range of 1.0-100% RH), located near the sample. The weight change, (mass relaxation) of the sample as a function of % RH was constantly monitored by the microbalance (accuracy ±0.005 mg).
Typically 5-20 mg of sample was placed in a tared mesh stainless steel basket under ambient conditions. The sample was loaded and unloaded at 40% RH and 25° C. (typical room conditions). A moisture sorption isotherm was performed as outlined below (2 scans giving 1 complete cycle). The standard isotherm was performed at 25° C. at 10% RH intervals over a 0-90% RH range. Data analysis was undertaken in Microsoft Excel using DVS Analysis Suite v6.0.

[2] = XRPD analysis after heating at 150° C.
Protocol: Polymorphic Form II of 1-(2-((((trans)-3-fluoro-1-(3-fluoropyridin-2-yl)cyclobutyl)methyl)amino)pyrimidin-5-yl)-1H-pyrrole-3-carboxamide was analyzed by XRPD, DSC, TGA, and GVS.

[3] = Competitive slurry experiments between Form I and Form V; conditions: XRPD
Protocol: For competitive slurry experiments, a mixture of Form I (˜10 mg) and Form V (˜10 mg) were suspended in 20 volumes of ethanol or methanol. Parallel maturation experiments were set up at a constant temperature, in the range of 4° C. to 60° C. for 9-12 days, the resulting solids (rapidly isolated by solvent decantation) were analyzed by XRPD. A mechanical mixture of Form I and Form V in equivalent weight was also analyzed by XRPD for reference. For the control experiments, slurries of Form I or Form V were subjected to the same conditions as in the competitive slurry experiments.
In an attempt to determine a transition temperature for the polymorph pair, a further four competitive slurry experiments were performed at a higher temperature range of 65-75° C. Using sealed vials, Form I (˜10 mg) and Form V (˜10 mg) were suspended in 20 volumes of ethanol or methanol and maturation continued for 2 days.

moisture uptake as determined by GVS [1] | solid form by XRPD after heating [2] | relative stability versus Form I (competitive slurry) ([3]; ethanol, 4° C. to 60° C., 9-12 days) | relative stability versus Form I (competitive slurry) ([3]; ethanol, 65-75° C., 2 days, sealed vials) | relative stability versus Form I (competitive slurry) ([3]; methanol, 4° C. to 60° C., 9-12 days) | solid form obtained from Form I/Form V competitive slurry ([3]; methanol, 65° C., 2 days, sealed vials) | Compound
about 1.65% | converted to Form I | – | – | – | – | NC(=O)c1ccn(-c2cnc(NC[C@]3(c4ncccc4F)C[C@H](F)C3)nc2)c1 [Form II, 1-(2-((((trans)-3-fluoro-1-(3-fluoropyridin-2-yl)cyclobutyl)methyl)amino)pyrimidin-5-yl)-1H-pyrrole-3-carboxamide]
less than 0.05% | – | more stable | more stable form | more stable | mixture of both forms | NC(=O)c1ccn(-c2cnc(NC[C@]3(c4ncccc4F)C[C@H](F)C3)nc2)c1 [Form V, 1-(2-((((trans)-3-fluoro-1-(3-fluoropyridin-2-yl)cyclobutyl)methyl)amino)pyrimidin-5-yl)-1H-pyrrole-3-carboxamide]
